{"source": "patent US11147801B2", "about": "“Methods of use for trisubstituted benzotriazole derivatives as dihydroorotate oxygenase inhibitors” (Aurigene Discovery Technologies Limited, priority 2017, dated 2021)", "key": {"[1]": {"tested_on": "MOLM-13 tumors", "assay": "MOLM-13 acute myeloid leukemia xenograft model", "format": "in vivo", "protocol": "In vivo efficacy studies with Compound 1 were performed to assess the in vitro to in vivo translation of effects on blockade of DHODH and tumor cell growth inhibition. 1×10^6 MOLM-13 cells were implanted subcutaneously into CB17 SCID mice. Mice (n=15/group) were treated with vehicle or Compound 1 at 100 mg/kg BID PO once tumors reached an average of ˜150 mm^3. At end of the study, tissues were collected at the indicated timepoints post-last dose for pharmacokinetic (PK) and pathway biomarker analyses."}, "[2]": {"tested_on": "HuNS1", "assay": "Heme line growth assay (Cell-Titer Glo), 4-day and extended 7-day", "format": "cell-based, human", "parameters": "key to Sensitivity 7-day: *: insensitive; **: intermediate; ***: sensitive", "protocol": "(§1) A follow-up screen was performed on an expanded panel of cell lines of heme lineage in a 4-day growth assay. Growth was assessed by Cell-Titer Glo measurements on day 0 and day 4.\n(§2) Compound 1, of which diffuse large B cell lymphoma (DLBCL) lines were particularly sensitive (8/11 or 73%). A subset of the heme lines that were of intermediate sensitivity (defined as >50% and <75% growth rate inhibition) or insensitive (defined as <50% growth rate inhibition) to compound 1 in this follow-up screen were subjected to extended growth assays to evaluate if increased treatment time modulated their sensitivity profile. Specifically, these heme lines were pretreated with Compound 1 for three days at the indicated concentrations and then re-plated for a standard 4-day growth assay in fresh media/drug."}, "[3]": {"tested_on": "AML-193", "assay": "Heme line growth assay (Cell-Titer Glo), 4-day and extended 7-day", "format": "cell-based, human", "parameters": "key to Sensitivity 7-day: *: insensitive; **: intermediate; ***: sensitive", "protocol": "as §1, §2"}, "[4]": {"tested_on": "TF1", "assay": "Heme line growth assay (Cell-Titer Glo), 4-day and extended 7-day", "format": "cell-based, human", "parameters": "key to Sensitivity 7-day: *: insensitive; **: intermediate; ***: sensitive", "protocol": "as §1, §2"}, "[5]": {"tested_on": "LP1", "assay": "Heme line growth assay (Cell-Titer Glo), 4-day and extended 7-day", "format": "cell-based, human", "parameters": "key to Sensitivity 7-day: *: insensitive; **: intermediate; ***: sensitive", "protocol": "as §1, §2"}, "[6]": {"tested_on": "SUDHL4", "assay": "Heme line growth assay (Cell-Titer Glo), 4-day and extended 7-day", "format": "cell-based, human", "parameters": "key to Sensitivity 7-day: *: insensitive; **: intermediate; ***: sensitive", "protocol": "as §1, §2"}, "[7]": {"tested_on": "THP-1", "assay": "Heme line growth assay (Cell-Titer Glo), 4-day and extended 7-day", "format": "cell-based, human", "parameters": "key to Sensitivity 7-day: *: insensitive; **: intermediate; ***: sensitive", "protocol": "as §1, §2"}, "[8]": {"tested_on": "MOLP-2", "assay": "Heme line growth assay (Cell-Titer Glo), 4-day and extended 7-day", "format": "cell-based, human", "parameters": "key to Sensitivity 7-day: *: insensitive; **: intermediate; ***: sensitive", "protocol": "as §1, §2"}, "[9]": {"tested_on": "KMS12BM", "assay": "Heme line growth assay (Cell-Titer Glo), 4-day and extended 7-day", "format": "cell-based, human", "parameters": "key to Sensitivity 7-day: *: insensitive; **: intermediate; ***: sensitive", "protocol": "as §1, §2"}, "[10]": {"tested_on": "KG-1", "assay": "Heme line growth assay (Cell-Titer Glo), 4-day and extended 7-day", "format": "cell-based, human", "parameters": "key to Sensitivity 7-day: *: insensitive; **: intermediate; ***: sensitive", "protocol": "as §1, §2"}, "[11]": {"tested_on": "U266B1", "assay": "Heme line growth assay (Cell-Titer Glo), 4-day and extended 7-day", "format": "cell-based, human", "parameters": "key to Sensitivity 7-day: *: insensitive; **: intermediate; ***: sensitive", "protocol": "as §1, §2"}, "[12]": {"tested_on": "F36P", "assay": "Heme line growth assay (Cell-Titer Glo), 4-day and extended 7-day", "format": "cell-based, human", "parameters": "key to Sensitivity 7-day: *: insensitive; **: intermediate; ***: sensitive", "protocol": "as §1, §2"}, "[13]": {"tested_on": "BDCM", "assay": "Heme line growth assay (Cell-Titer Glo), 4-day and extended 7-day", "format": "cell-based, human", "parameters": "key to Sensitivity 7-day: *: insensitive; **: intermediate; ***: sensitive", "protocol": "as §1, §2"}, "[14]": {"tested_on": "HEL", "assay": "Heme line growth assay (Cell-Titer Glo), 4-day and extended 7-day", "format": "cell-based, human", "parameters": "key to Sensitivity 7-day: *: insensitive; **: intermediate; ***: sensitive", "protocol": "as §1, §2"}, "[15]": {"tested_on": "REC-1", "assay": "Heme line growth assay (Cell-Titer Glo), 4-day and extended 7-day", "format": "cell-based, human", "parameters": "key to Sensitivity 7-day: *: insensitive; **: intermediate; ***: sensitive", "protocol": "as §1, §2"}, "[16]": {"tested_on": "SKNO-1", "assay": "Heme line growth assay (Cell-Titer Glo), 4-day and extended 7-day", "format": "cell-based, human", "protocol": "as §1, §2"}, "[17]": {"tested_on": "Kasumi-6", "assay": "Heme line growth assay (Cell-Titer Glo), 4-day and extended 7-day", "format": "cell-based, human", "protocol": "as §1, §2"}, "[18]": {"tested_on": "GDM-1", "assay": "Heme line growth assay (Cell-Titer Glo), 4-day and extended 7-day", "format": "cell-based, human", "protocol": "as §1, §2"}, "[19]": {"tested_on": "Kasumi-3", "assay": "Heme line growth assay (Cell-Titer Glo), 4-day and extended 7-day", "format": "cell-based, human", "protocol": "as §1, §2"}, "[20]": {"conditions": "3 days pretreatment then 4-day growth assay"}, "[21]": {"conditions": "acute myeloid leukemia, 4-day growth assay"}}, "data": [{"smiles": "Cc1ccccc1-c1ccc(-c2cc(C(=O)O)c3c(c2)nnn3C)cc1", "note": "[Compound 1, 1-methyl-5-(2′-methyl-[1,1′-biphenyl]-4-yl)-1H-benzo[d][1,2,3]triazole-7-carboxylic Acid]", "values": [{"measurement": "Tolerability", "setting": "[1]; 100 mg/kg BID PO, CB17 SCID mice", "result": "well tolerated"}, {"measurement": "Tumor growth inhibition (TGI)", "setting": "[1]; 100 mg/kg BID PO, MOLM-13 xenograft, 14 days", "result": "near complete tumor growth inhibition"}, {"measurement": "Reduction of tumor uridine pools", "setting": "[1]; 100 mg/kg BID, MOLM-13 tumors, depending on the timepoint", "result": "~60", "unit": "%"}, {"measurement": "Tumor levels of dihydroorotate (DHO)", "setting": "[1]; 100 mg/kg BID, MOLM-13 tumors, over 12 hrs after last dose, baseline BQL<120 ng/g", "result": "dramatic increase"}, {"measurement": "Pharmacokinetics profile in plasma and tumor", "setting": "[1]; 100 mg/kg BID, after last dose", "result": "drop in drug concentrations by 12 hrs"}, {"measurement": "Sensitivity 7-day", "setting": "[2]; HuNS1, 3 days pretreatment then 4-day growth assay", "result": "***"}, {"measurement": "Sensitivity 4-day", "setting": "[2]; HuNS1, multiple myeloma, 4-day growth assay", "result": "* (insensitive)"}, {"measurement": "Sensitivity 7-day", "setting": "[3]; AML-193, 3 days pretreatment then 4-day growth assay", "result": "***"}, {"measurement": "Sensitivity 4-day", "setting": "[3]; AML-193, acute myeloid leukemia, 4-day growth assay", "result": "** (intermediate)"}, {"measurement": "Sensitivity 7-day", "setting": "[4]; TF1, 3 days pretreatment then 4-day growth assay", "result": "***"}, {"measurement": "Sensitivity 4-day", "setting": "[4]; TF1, acute myeloid leukemia, 4-day growth assay", "result": "* (insensitive)"}, {"measurement": "Sensitivity 7-day", "setting": "[5]; LP1, 3 days pretreatment then 4-day growth assay", "result": "***"}, {"measurement": "Sensitivity 4-day", "setting": "[5]; LP1, multiple myeloma, 4-day growth assay", "result": "* (insensitive)"}, {"measurement": "Sensitivity 7-day", "setting": "[6]; SUDHL4, 3 days pretreatment then 4-day growth assay", "result": "***"}, {"measurement": "Sensitivity 4-day", "setting": "[6]; SUDHL4, diffuse large B cell lymphoma, 4-day growth assay", "result": "** (intermediate)"}, {"measurement": "Sensitivity 7-day", "setting": "[7]; THP-1, 3 days pretreatment then 4-day growth assay", "result": "***"}, {"measurement": "Sensitivity 4-day", "setting": "[7]; THP-1, acute myeloid leukemia, 4-day growth assay", "result": "** (intermediate)"}, {"measurement": "Sensitivity 7-day", "setting": "[8]; MOLP-2, 3 days pretreatment then 4-day growth assay", "result": "***"}, {"measurement": "Sensitivity 4-day", "setting": "[8]; MOLP-2, multiple myeloma, 4-day growth assay", "result": "** (intermediate)"}, {"measurement": "Sensitivity 7-day", "setting": "[9]; [20]", "result": "***"}, {"measurement": "Sensitivity 4-day", "setting": "[9]; multiple myeloma, 4-day growth assay", "result": "** (intermediate)"}, {"measurement": "Sensitivity 7-day", "setting": "[10]; KG-1, 3 days pretreatment then 4-day growth assay", "result": "***"}, {"measurement": "Sensitivity 4-day", "setting": "[10]; KG-1, acute myeloid leukemia, 4-day growth assay", "result": "* (insensitive)"}, {"measurement": "Sensitivity 7-day", "setting": "[11]; U266B1, 3 days pretreatment then 4-day growth assay", "result": "***"}, {"measurement": "Sensitivity 4-day", "setting": "[11]; U266B1, multiple myeloma, 4-day growth assay", "result": "* (insensitive)"}, {"measurement": "Sensitivity 7-day", "setting": "[12]; [20]", "result": "***"}, {"measurement": "Sensitivity 4-day", "setting": "[12]; [21]", "result": "** (intermediate)"}, {"measurement": "Sensitivity 7-day", "setting": "[13]; [20]", "result": "***"}, {"measurement": "Sensitivity 4-day", "setting": "[13]; [21]", "result": "** (intermediate)"}, {"measurement": "Sensitivity 7-day", "setting": "[14]; [20]", "result": "***"}, {"measurement": "Sensitivity 4-day", "setting": "[14]; [21]", "result": "** (intermediate)"}, {"measurement": "Sensitivity 7-day", "setting": "[15]; REC-1, 3 days pretreatment then 4-day growth assay", "result": "***"}, {"measurement": "Sensitivity 4-day", "setting": "[15]; REC-1, mantle cell lymphoma, 4-day growth assay", "result": "* (insensitive)"}, {"measurement": "Sensitivity 7-day", "setting": "[16]; SKNO-1, 3 days pretreatment then 4-day growth assay", "result": "** (intermediate)"}, {"measurement": "Sensitivity 4-day", "setting": "[16]; SKNO-1, acute myeloid leukemia, 4-day growth assay", "result": "* (insensitive)"}, {"measurement": "Sensitivity 7-day", "setting": "[17]; Kasumi-6, 3 days pretreatment then 4-day growth assay", "result": "* (insensitive)"}, {"measurement": "Sensitivity 4-day", "setting": "[17]; Kasumi-6, acute myeloid leukemia, 4-day growth assay", "result": "* (insensitive)"}, {"measurement": "Sensitivity 7-day", "setting": "[18]; GDM-1, 3 days pretreatment then 4-day growth assay", "result": "** (intermediate)"}, {"measurement": "Sensitivity 4-day", "setting": "[18]; GDM-1, acute myeloid leukemia, 4-day growth assay", "result": "* (insensitive)"}, {"measurement": "Sensitivity 7-day", "setting": "[19]; Kasumi-3, 3 days pretreatment then 4-day growth assay", "result": "* (insensitive)"}, {"measurement": "Sensitivity 4-day", "setting": "[19]; Kasumi-3, acute myeloid leukemia, 4-day growth assay", "result": "* (insensitive)"}]}]}
